From patent US7786042B2, “Fluridone as an anti-inflammatory agent” (Universita' Degli Studi Di Genova, priority 2005, dated 2010)
“Also recorded” adds a separate entry of the source. Read-outs that look alike come from different tables or passages of the source.

Experiments:
[1] = test system: murine microglia cell line N9; assay: NO release by murine microglia N9; format: cell-based
Method: The method used to determine NO released from the cells into the medium exploits the spontaneous conversion of NO to nitrates and the subsequent enzymatic reduction of nitrates to nitrites by the enzyme nitrate reductase. […] Granulocytes (60×10^6/well) or murine microglia cells N9 (2×10^5/well) were incubated in 24-well plates for 60 min at 37° C. in the presence of ABA at different concentrations. The supernatants were then centrifuged and diluted with an equal volume of Griess reagent (0.1% naphthyl-ethylenediamine dihydrochloride in distilled water, 1% sulphanylamide in 5% concentrated H3PO4). Absorbance at 545 nm was estimated after 10 min and the nitrite concentration was calculated using a standard curve, generated in parallel with known amounts of NaNO2.

[2] = test system: murine macrophages RAW 264.7; assay: PGE2 production by murine macrophages RAW 264.7; format: cell-based
Method: (§1) Murine macrophages of the continuous cell line RAW 264.7 were pre-incubated with 50 μM fluridone (flu) for 2 hours and then stimulated with 10 μM ABA or with 100 ng/ml of lipopolysaccharide (LPS) for 6 hours. The concentration of PGE2 (panel A) or of TNF-α (panel B) in the cell supernatant was measured as described under Materials and Methods and was compared with that from untreated (control) cells. The results are the mean ±SD from 4 experiments.
(§2) The method used to assay TNF-α is based on the high sensitivity of the murine fibroblast cell line L929 to the toxic effect of this cytokine. Briefly, fibroblasts were seeded (3×10^4/well) in 96-well plates and after 24 h the medium was substituted with the supernatant of the cell cultures where the TNF-α content was to be estimated. In parallel, known amounts of the cytokine were added to other wells, in order to obtain a standard curve of toxicity. After 48 hours, MTT (0.05 mg/ml) was added to each well and after 3 hours incubation at 37° C. (during this time viable cells reduce the dye producing formazan crystals), the medium was removed, DMSO (200 μl/well) was added to dissolve the formazan crystals and the absorbance was recorded at 570 nm with a spectrophotometric plate reader. The TNF-α concentration in the culture supernatants was calculated by comparison of the percentage of viable cells in the treated wells with those containing known amounts of TNF-α (standard curve). The PGE2 release in the medium by stimulated inflammatory cells was measured by an immunoenzymatic assay kit, commercially available (PGE2 EIA-kit, Cayman Chemicals, Ann Arbor, Mich., USA).

human monocytes [3] = assay: TNF-α release by human monocytes (L929 toxicity assay); format: cell-based
Method: (§3) Human monocytes were pre-incubated with 50 μM fluridone (flu) for 2 hours and then stimulated with 10 μM ABA or with 100 ng/ml of lipopolysaccharide (LPS) for 6 hours. The concentration of PGE2 (panel A) and of TNF-α (panel B) in the cell supernatant was measured as described under Materials and Methods and compared with that of untreated cells (control). The results are the mean ±SD from 4 experiments.
as §2

[4] = test system: murine macrophages RAW 264.7; assay: TNF-α production by murine macrophages RAW 264.7; format: cell-based
Method: as §1, §2

human monocytes [5] = assay: PGE2 production / COX-2 expression in human monocytes; format: cell-based
Method: as §3, §2

[6] = test system: murine microglia cell line N9; assay: TNF-α release by murine microglia N9; format: cell-based
Method: Confluent cell cultures from the murine microglia cell line N9 were pre-incubated in the presence or in the absence of 50 μM fluridone for 4 hours and then stimulated with 10 μM ABA or with 100 ng/ml lipopolysaccharide for 24 hours. The concentration of PGE2 (panel A) and of TNF-α (panel B) in the cell supernatant was measured as described under Materials and Methods. The results are expressed as release relative to control cultures in the absence of added stimuli and are the mean ±SD from 4 experiments.
as §2

human granulocytes = assay: NO release by granulocytes (nitrite, Griess); format: cell-based
Method: Granulocytes were resuspended at 5×10^6/ml in HBSS and 225 μl of the cell suspension were added to 50 μl of 0.2 mM cytochrome c and were incubated for 30 min at 37° C. in the absence (control) or in the presence of 250 nM or 20 μM ABA, the latter concentration without or with 1 mM EDTA, 20 mM nicotinamide or 0.1 mM 8-Br-cADPR. […] The results are expressed as the production relative to control cells, not stimulated with ABA, and are the mean ±SD from 5 experiments.

human monocytes [7] = assay: MCP-1 release from human monocytes; format: cell-based
Method: Human monocytes were incubated for 6 hours with 10 μM ABA or with 100 ng/ml of lipopolysaccharide (LPS), in the presence or in the absence of fluridone (50 μM) and the MCP-1 concentration in the cell supernatant was immunoenzimatically measured, with a commercially available kit (R&D System, CA, USA). The results are the mean ±SD from 3 experiments.

human lymphocytes = assay: Lymphocyte proliferation ([3H]-thymidine incorporation); format: cell-based; details: for inhibition at 50 µM: Homo sapiens, Lymphocyte, pre-incubation with fluridone 50 μM
Method: Low density mononuclear cells (lymphocytes and monocytes), isolated from peripheral blood, were incubated in triplicate (1.5×10^5/well) in 96-well plates in RPMI containing 20% autologous plasma in the absence (control) or in the presence of 50 μM fluridone for 18 hours. Phytohemagglutinin (PHA) (0.1 μg/ml) or phorbol myristate acetate (PMA) (0.1 μg/ml) were then added, with or without the simultaneous addition of ABA. After 72 hours, [^3H]-Thymidine (Amersham Biosciences, Uppsala, Sweden) was added to the cultures (0.2 μCi/well) and after 6 hours the incorporated radioactivity was evaluated by filtration of the cells on glass fiber filters (Whatman, Maidenstone, UK). Results are the mean ±SD from 3 experiments. In the absence of stimuli (PHA or PMA), no lymphocyte proliferation was observed.
Blood enriched in leukocytes (buffy coat), was provided by Galliera Hospital, Genova, Italy, upon informed consent of the volunteer donors. Lymphocytes, granulocytes and monocytes were isolated by density centrifugation through Ficoll-Paque (Amersham Biosciences, Uppsala, Sweden). Low-density mononuclear cells (including lymphocytes and monocytes) were collected at the plasma-Ficoll interphase and monocytes were further purified by adherence to plastic cell culture flasks. Granulocytes were isolated from high-density cells, sedimented under the Ficoll layer by hypotonic lysis of contaminating erythrocytes. All cell populations were then resuspended in RPMI 1640 medium (Sigma) containing penicillin (100 U/ml), streptomycin (100 μg/ml) and 20% autologous plasma. Culture conditions were as those described below for cell lines.

whole blood cells = assay: LPS-induced histamine release from blood cells; format: cell-based, human; details: pre-incubation with 50 μM fluridone
Method: Whole blood was pre-incubated for 2 hours at 25° C. in the absence (control) or in the presence of 50 μM fluridone. Then, 100 ng/ml of lipopolysaccharide (LPS) was added to the blood at 37° C. for the time indicated. The histamine concentration in plasma was measured immunoenzymatically with a commercially available kit (IBL-Hamburg, Germany). The results are the mean ±SD from 3 experiments.

[8] = exogenous ABA 10-20 μM added to fluridone-treated cultures

Structure (SMILES): CC1=CC(=O)CC(C)(C)[C@@]1(O)/C=C/C(C)=C\C(=O)O (racemic) [ABA, (±)-cis, trans ABA]
- release of NO ([1]; ABA 0.2-20 μM): increase; also recorded: ↑NO release
- NO release compromised by fluridone [1, 8]: partly restores
- release of PGE2 (COX-PGE2) ([2]; ABA 0.1-10 μM): increased release; also recorded: ↑COX-PGE2
- release of TNF-α (human monocytes [3]; ABA 0.1-10 μM): significant increase
- Effects of ABA: TNF-α release (human monocytes [3]; Added ABA 5-50 μM): ↑TNF-α release
- TNF-α release compromised by fluridone (human monocytes [3]; [8]): partly restores
- release of TNF-α ([4]; ABA 0.1-10 μM): increased release; also recorded: ↑TNF-α release
- TNF-α release compromised by fluridone [4, 8]: partly restores
- expression of cyclooxygenase 2 (COX-2), Western blot (human monocytes [5]; ABA 0.1-10 μM): increased expression
- production of prostaglandin E2 (PGE2) (human monocytes [5]; ABA 0.1-10 μM): increased production
- Effects of ABA: COX-PGE2 (human monocytes [5]; Added ABA 5-50 μM): ↑COX-PGE2
- release of TNF-α ([6]; ABA 0.2-20 μM): increase; also recorded: ↑TNF-α release
- TNF-α release compromised by fluridone [6, 8]: partly restores
- production/release of nitric oxide (NO) (human granulocytes; ABA 0.2-20 μM): stimulation; also recorded: ↑NO release
- increase of release of MCP-1 (human monocytes [7]; ABA 0.1-10 μM): approx. two-fold
- Effects of ABA: MCP-1 release (human monocytes [7]; Added ABA 5-50 μM): ↑MCP-1 release
- stimulation of proliferation (human lymphocytes; ABA 50 to 500 μM, in the absence of other stimuli (PMA, PHA)): 30%
- Effects of ABA: proliferation (human lymphocytes; Added ABA 50-500 μM): ↑proliferation
- restoration of the proliferative response (human lymphocytes; excess exogenous ABA 500 μM together with fluridone): approximately 40%

Structure (SMILES): Cn1cc(-c2ccccc2)c(=O)c(-c2cccc(C(F)(F)F)c2)c1 [Fluridone, 1-methyl-3-phenyl-5-(α,α,α-trifluoro-m-tolyl)-4-pyridone]
- histamine release by LPS-stimulated (unfractionated) blood cells (whole blood cells): completely inhibits
- Effects of Fluridone: NO release [1]: ↓NO release
- Effects of Fluridone: COX-PGE2 [2]: ↓COX-PGE2
- LPS-stimulated PGE2 production ([2]; fluridone 50 μM): completely inhibits
- Effects of Fluridone: TNF-α release (human monocytes [3]): ↓TNF-α release
- inhibition at 50 µM (human monocytes [3]; Homo sapiens, Monocyte, fluridone 50 μM, read-out: inhibition of LPS-induced TNF-α production): 90%
- Effects of Fluridone: TNF-α release [4]: ↓TNF-α release
- inhibition at 50 µM ([4]; Mus musculus, RAW264.7, fluridone 50 μM, read-out: inhibition of LPS-induced TNF-α production): 90%
- Effects of Fluridone: COX-PGE2 (human monocytes [5]): ↓COX-PGE2
- LPS-stimulated PGE2 production (human monocytes [5]; fluridone 50 μM): completely inhibits
- Effects of Fluridone: TNF-α release [6]: ↓TNF-α release
- Effects of Fluridone: fMLP-, ATP-, β-amyloid-induced NO release (human granulocytes): ↓fMLP-, ATP-, β-
- inhibition at 50 µM (human granulocytes; Homo sapiens, read-out: inhibition of NO release): ~80%
- Effects of Fluridone: MCP-1 release (human monocytes [7]): ↓MCP-1 release
- release of MCP-1 by LPS-stimulated monocytes (human monocytes [7]; fluridone 50 μM): almost completely inhibits
- Effects of Fluridone: PMA-, LPS-, PHA-induced proliferation (human lymphocytes): ↓PMA-, LPS-,
- inhibition at 50 µM (human lymphocytes; read-out: inhibition of PHA-induced cell proliferation): 50%
- inhibition at 50 µM (human lymphocytes; read-out: inhibition of PMA-induced cell proliferation): 90%
